Molecules are shown by their SMILES. Where two headings read alike, the source gives them in different places.

For assay [1], the target named is T1, endogenous CETP from serum (Homo sapiens, UniProt P11597).
T1 construct: yielding a concentration of approximately 15 nM endogenous CETP in the assay; from tissue; host or cells: human serum
T1 sequence (P11597 18-493): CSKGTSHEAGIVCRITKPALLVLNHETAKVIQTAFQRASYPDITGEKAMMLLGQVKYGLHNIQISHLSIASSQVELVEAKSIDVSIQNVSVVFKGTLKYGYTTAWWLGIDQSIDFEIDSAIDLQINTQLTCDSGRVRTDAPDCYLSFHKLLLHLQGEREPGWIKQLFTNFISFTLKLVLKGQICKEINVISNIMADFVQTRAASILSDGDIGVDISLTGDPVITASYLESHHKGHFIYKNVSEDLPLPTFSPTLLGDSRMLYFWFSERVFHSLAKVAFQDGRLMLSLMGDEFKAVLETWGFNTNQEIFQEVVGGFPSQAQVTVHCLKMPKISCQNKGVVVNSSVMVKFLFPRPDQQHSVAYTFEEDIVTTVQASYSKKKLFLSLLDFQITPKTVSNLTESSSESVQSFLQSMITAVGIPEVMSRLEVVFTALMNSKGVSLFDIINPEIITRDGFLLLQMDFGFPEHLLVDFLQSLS
Briefly: RTA assay in 95% human serum (CETP-catalyzed CE and TG transfer, endogenous CETP from serum). Format: biochemical. As for the experimental part: In Vitro Radioactive Assays of CETP-Catalyzed CE and TG Transfer (RTA Assay)
Reagents and sources are: [3H] cholesteryl oleate (GE #TRK.886), [3H] Triolein (Perkin-Elmer NET-431), Butylated hydroxyl toluene (Aldrich, #D4740-4), DOPC (Sigma, # P6354), Sodium Bromide (Fisher scientific #S255-500), PEG 8000 (Fisher, #BP233-1), and human HDL (Intracel Corp #RP-036).
An in vitro assay for determining IC50's to identify compounds that inhibit CETP transfer activity is performed based on a modification of a published method (Morton and Zilversmit, (1981) A plasma inhibitor of triglyceride and cholesteryl ester transfer activities, J. Biol. Chem. 256(23), 11992-11995). The ability of inhibitors to alter CETP activity is performed using two different assays: one using recombinant CETP and one using an endogenous plasma source of CETP. Both assays measure the transfer of [3H] cholesteryl oleate or [3H] triolein from exogenous LDL to HDL.
Radiolabeled donor particles are generated by first combining 100 μl of 200 μM butylated hydroxyl toluene in CHCl3, 216 μL of 21.57 mM DOPC in EtOH, and either 500 μCi [3H]-triolein (Perkin Elmer #NET-431) or 500 μCi [3H]-cholesteryl oleate (GE #TRK886) in a glass tube. Reagents are mixed, dried under nitrogen, and then resuspended in 2 mL of 50 mM Tris, 27 μM EDTA at pH 7.4. After a brief vortex, the solution is sonicated until clear and mixed with 20 mL of fresh human serum. The mixture is incubated overnight at 37° C. The [3H] labeled LDL substrate is separated at 1.063 g/ml density by sequential ultracentrifugal flotation in NaBr according to the method of Havel, Eder, et al., 1955, and Chapman, Goldstein, et al., 1981. Once isolated the particles are dialyzed 3× in CETP buffer (50 mM Tris, pH 7.4, 100 mM NaCl, 1 mM EDTA). Human HDL is purchased from Intracel and used as the acceptor particles.
Transfer assays are performed in a 96-well v-bottom polypropylene plate. For the RTA using recombinant CETP (2% RTA), an assay cocktail is prepared with the final concentrations 128 μg/mL HDL, 20 nM rCETP, 2% human serum, and 1×CETP buffer. 1 μL of each test compound diluted in DMSO is added to 47 μL of assay cocktail per well and incubated at 37° C. for 1 hour. To initiate the transfer reaction, 2 μL radiolabeled LDL is added. After an additional 60 min of incubation at 37° C., the transfer action is terminated by precipitation of LDL with an equal volume of 20% W/V PEG 8000. The plates are centrifuged at 2000 rpm for 30 minutes at 4° C. A 40 μL aliquot of the HDL-containing supernatant is transferred to a Packard Optiplate™ with 200 μL of MicroScint™ 20. After mixing, plates are counted by liquid scintillation. Counts present in the supernatant for blanks (wells containing only HDL acceptor, CETP buffer and DMSO) are subtracted from those containing test compounds and used to correct for non-specific transfer.
For the transfer assay using endogenous CETP from serum (95% RTA), the same procedure is used except that human serum is added such that a final concentration of serum of 95% of the total assay volume is achieved, yielding a concentration of approximately 15 nM endogenous CETP in the assay. This is then combined with HDL and CETP buffer and the reaction proceeds as above and is terminated as described.
Comparison of the counts of samples with inhibitors to an uninhibited (DMSO only) positive control yield a percent inhibition. A plot of percent inhibition vs. log of inhibitor concentration, fit to a Sigmoidal 4 parameter equation is used to calculate IC50.
Starting materials are commercially available or are made using known procedures or as shown below. The examples may be synthesized using the general schemes provided below. Synthetic intermediates for making the compounds are made as described below. The data reported for the examples below were generally obtained using the RTA assay in 95% human serum. […]

For assay [2] the following is noted: patients on anacetrapib plus baseline statin compared with patients treated with just a statin; cited from earlier work.

For `COc1ncc(-c2ccc(C(=O)O)cc2C)cc1-c1ccc(C(F)(F)F)nc1CN1C(=O)S[C@H](c2cc(C(F)(F)F)cc(C(F)(F)F)c2)[C@@H]1C` [Example 3, 4-[2′-({(4S,5R)-5-[3,5-bis(trifluoromethyl)phenyl]-4-methyl-2-oxo 1,3-thiazolidin-3-yl}methyl)-2-methoxy-6′-(trifluoromethyl)-3,3′-bipyridin-5-yl]-3-methylbenzoic acid], in assay [1] (read-out: IC50), the IC50 is 106 nM.
Turning to `COc1ncc(-c2ccc(C(=O)O)cc2C)cc1-c1ccc(C(F)(F)F)cc1CN1C(=O)S[C@H](c2cc(C(F)(F)F)cc(C(F)(F)F)c2)[C@@H]1C` [Example 7, 4-{5-[2-({(4S,5R)-5-[3,5-bis(trifluoromethyl)phenyl]-4-methyl-2-oxo-1,3-thiazolidin-3-yl}methyl)-4-(trifluoromethyl)phenyl]-6-methoxypyridin-3-yl}-3-methylbenzoic acid], the IC50 in assay [1] (read-out: IC50) stood at 117 nM.
As for `COc1cc(F)c(C(C)C)cc1-c1ccc(C(F)(F)F)cc1CN1C(=O)O[C@H](c2cc(C(F)(F)F)cc(C(F)(F)F)c2)[C@@H]1C` [anacetrapib], in assay [2], the “decrease of LDL-C” value is 40% and the “increase of HDL-C” value is 138%.
Regarding `COc1ncc(-c2c(C)cc(C(=O)O)cc2C)cc1-c1ccc(C(F)(F)F)nc1CN1C(=O)S[C@H](c2cc(C(F)(F)F)cc(C(F)(F)F)c2)[C@@H]1C` [Example 5, 4-[2′-({(4S,5R)-5-[3,5-bis(trifluoromethyl)phenyl]-4-methyl-2-oxo-1,3-thiazolidin-3-yl}methyl)-2-methoxy-6′-(trifluoromethyl)-3,3′-bipyridin-5-yl]-3,5-dimethylbenzoic acid], in assay [1] (read-out: IC50), the IC50 worked out at 25 nM.
As to `COc1ccc(CCC(=O)O)cc1-c1ccc(C(F)(F)F)nc1CN1C(=O)S[C@H](c2cc(C(F)(F)F)cc(C(F)(F)F)c2)[C@@H]1C` [Example 4, 3-{3-[2-({(4S,5R)-5-[3,5-bis(trifluoromethyl)phenyl]-4-methyl-2-oxo-1,3-thiazolidin-3-yl}methyl)-6-(trifluoromethyl)pyridin-3-yl]-4-methoxyphenyl} propanoic acid], the IC50 in assay [1] (read-out: IC50) was 300 nM.
Consider `COc1ccc(-c2ccc(C(=O)O)cc2C)cc1-c1ccc(C(F)(F)F)cc1CN1C(=O)S[C@H](c2cc(C(F)(F)F)cc(C(F)(F)F)c2)[C@@H]1C` [Example 1, 2″-(((4S,5R)-5-(3,5-bis(trifluoromethyl)phenyl)-4-methyl-2-oxothiazolidin-3-yl)methyl)-4′-methoxy-2-methyl-4″-(trifluoromethyl)-[1,1′:3′,1″-terphenyl]-4-carboxylic acid], for which the IC50 in assay [1] (read-out: RTA (95% HS)) worked out at 62 nM.
In the case of `COc1ccc([C@H]2CC[C@H](C(=O)O)CC2)cc1-c1ccc(C(F)(F)F)nc1CN1C(=O)S[C@H](c2cc(C(F)(F)F)cc(C(F)(F)F)c2)[C@@H]1C` [Example 6, trans-4-{3-[2-({(4S,5R)-5-[3,5-bis(trifluoromethyl)phenyl]-4-methyl-2-oxo-1,3-thiazolidin-3-yl}methyl)-6-(trifluoromethyl)pyridin-3-yl]-4-methoxyphenyl} cyclohexanecarboxylic acid], the IC50 in assay [1] (read-out: IC50) came out at 257 nM.
Take `COc1ccc(-c2ccc(C(=O)O)cc2C)cc1-c1ccc(C(F)(F)F)nc1CN1C(=O)S[C@H](c2cc(C(F)(F)F)cc(C(F)(F)F)c2)[C@@H]1C` [Example 2, 3′-[2-({(4S,5R)-5-[3,5-bis(trifluoromethyl)phenyl]-4-methyl-2-oxo-1,3-thiazolidin-3-yl}methyl)-6-(trifluoromethyl)pyridin-3-yl]-4′-methoxy-2-methylbiphenyl-4-carboxylic acid]: the IC50 in assay [1] (read-out: IC50) was found to be 39 nM.

The record behind these values is patent US9376408B2, “Therapeutic thiazolidinone compounds” (Merck Sharp & Dohme Corp., priority 2012, dated 2016).
